This note sets out measurements from BindingDB's records for doi:10.1016/s0960-894x(98)00542-3 (University of Tokyo, 1998).

Broadly, the IC50 is the concentration at which inhibition is half-maximal. Low readings indicate higher potency, high ones lower potency.

The assay addresses Chitinase (Trichoderma). The assay is described as follows: Compound was evaluated for inhibitory activity against Trichoderma Chitinase.

In turn, `CC(=O)NC(/C=N/NC(=O)CCCCCNC(=O)CCCCC1SC[C@H]2NC(=O)N[C@@H]12)C(OC(C=O)CO)OC1C(CO)OC(OC2C(O)C3N=C(N(C)C)OC3C2CO)C(NC(C)=O)C1O` (some centres undefined) yielded an IC50 of 41.1 nM.
Next, `CC(=O)NC(CO)C(OC(CO)CO)OC1C(CO)OC(OC2C(O)C3N=C(N(C)C)OC3C2CO)C(NC(C)=O)C1O` (centres undefined): 80 nM.
`CC(=O)NC(/C=N/NC(=O)CCCCCNC(=O)CCCCC1SC[C@H]2NC(=O)N[C@@H]12)C(OC(CO)CO)OC1C(CO)OC(OC2C(O)C3N=C(N(C)C)OC3C2CO)C(NC(C)=O)C1O` (some centres undefined) displayed an IC50 of 41 nM.
In turn, `CC(=O)NC(/C=N/NC(=O)CCCCCNC(=O)CCCCC1SC[C@@H]2NC(=O)N[C@H]12)C(OC(/C=N/NC(=O)CCCCCNC(=O)CCCCC1SC[C@@H]2NC(=O)N[C@H]12)CO)OC1C(CO)OC(OC2C(O)C3N=C(N(C)C)OC3C2CO)C(NC(C)=O)C1O` (some centres undefined) registered an IC50 of 7.53 nM.
